Source: US20160101188A1, “NOVEL NANOCARRIER DELIVERED CANCER CHEMOTHERAPEUTIC AGENTS” (UNIVERSITY OF CINCINNATI, priority 2013, published 2016)

Tests used:
CNS SNB-75 = test: NCI in vitro cell line screen (SRB), single dose; type: cell-based, human; conditions: CNS SNB-75, single dose of 10 μM
Experimental: (§1) Four of the preliminary lead compounds: three nucleosides (JT-1-10, VAL-1-15/42, VAL-1-16) and one nucleobase (KB-1-17)—were submitted to the National Cancer Institute for the in vitro cell line screening project (IVCLSP). The screening consisted in the evaluation of this compound against the 60 cell lines at a single dose of 10 μM.
(§2) The human tumor cell lines of the cancer screening panel are grown in RPMI 1640 medium containing 5% fetal bovine serum and 2 mM L-glutamine. For a typical screening experiment, cells are inoculated into 96 well microtiter plates in 100 μL at plating densities ranging from 5,000 to 40,000 cells/well depending on the doubling time of individual cell lines. After cell inoculation, the microtiter plates are incubated at 37° C., 5% CO2, 95% air and 100% relative humidity for 24 h prior to addition of experimental drugs.
(§3) After 24 h, two plates of each cell line are fixed in situ with TCA, to represent a measurement of the cell population for each cell line at the time of drug addition (Tz). Experimental drugs are solubilized in dimethyl sulfoxide at 400-fold the desired final maximum test concentration and stored frozen prior to use. At the time of drug addition, an aliquot of frozen concentrate is thawed and diluted to twice the desired final maximum test concentration with complete medium containing 50 μg/ml gentamicin. Additional four, 10-fold or ½ log serial dilutions are made to provide a total of five drug concentrations plus control. Aliquots of 100 μl of these different drug dilutions are added to the appropriate microtiter wells already containing 100 μl of medium, resulting in the required final drug concentrations.
(§4) Following drug addition, the plates are incubated for an additional 48 h at 37° C., 5% CO2, 95% air, and 100% relative humidity. For adherent cells, the assay is terminated by the addition of cold TCA. Cells are fixed in situ by the gentle addition of 50 μl of cold 50% (w/v) TCA (final concentration, 10% TCA) and incubated for 60 minutes at 4° C. The supernatant is discarded, and the plates are washed five times with tap water and air dried. Sulforhodamine B (SRB) solution (100 μl) at 0.4% (w/v) in 1% acetic acid is added to each well, and plates are incubated for 10 minutes at room temperature. After staining, unbound dye is removed by washing five times with 1% acetic acid and the plates are air dried. Bound stain is subsequently solubilized with 10 mM trizma base, and the absorbance is read on an automated plate reader at a wavelength of 515 nm. For suspension cells, the methodology is the same except that the assay is terminated by fixing settled cells at the bottom of the wells by gently adding 50 μl of 80% TCA (final concentration, 16% TCA). Using the seven absorbance measurements [time zero, (Tz), control growth, (C), and test growth in the presence of drug at the five concentration levels (Ti)], the percentage growth is calculated at each of the drug concentrations levels. Percentage growth inhibition is calculated as:
(§5) [(Ti−Tz)/(C−Tz)]×100 for concentrations for which Ti>/=Tz
(§6) [(Ti−Tz)/Tz]×100 for concentrations for which Ti<Tz.
(§7) Three dose response parameters are calculated for each experimental agent. Growth inhibition of 50% (GI50) is calculated from [(Ti−Tz)/(C−Tz)]×100=50, which is the drug concentration resulting in a 50% reduction in the net protein increase (as measured by SRB staining) in control cells during the drug incubation. The drug concentration resulting in total growth inhibition (TGI) is calculated from Ti=Tz. The LC50 (concentration of drug resulting in a 50% reduction in the measured protein at the end of the drug treatment as compared to that at the beginning) indicating a net loss of cells following treatment is calculated from [(Ti−Tz)/Tz]×100=−50. […]

[1] = tested on: Non-Small Cell Lung HOP-92; test: NCI in vitro cell line screen (SRB), single dose; type: cell-based, human; conditions: Non-Small Cell Lung HOP-92, single dose of 10 μM
Experimental: as §1, §2, §3, §4, §5, §6, §7

Breast MSF7 = test: NCI in vitro cell line screen (SRB), single dose; type: cell-based, human; conditions: Breast MSF7, single dose of 10 μM
Experimental: as §1, §2, §3, §4, §5, §6, §7

Renal TK-10 = test: NCI in vitro cell line screen (SRB), single dose; type: cell-based, human; conditions: Renal TK-10, single dose of 10 μM
Experimental: as §1, §2, §3, §4, §5, §6, §7

Renal UO-31 = test: NCI in vitro cell line screen (SRB), single dose; type: cell-based, human; conditions: Renal UO-31, single dose of 10 μM
Experimental: as §1, §2, §3, §4, §5, §6, §7

[2] = tested on: Non-Small Cell Lung NCI-H522; test: NCI in vitro cell line screen (SRB), single dose; type: cell-based, human; conditions: Non-Small Cell Lung NCI-H522, single dose of 10 μM
Experimental: as §1, §2, §3, §4, §5, §6, §7

Leukemia RPMI-8226 = test: NCI in vitro cell line screen (SRB), single dose; type: cell-based, human; conditions: Leukemia RPMI-8226, single dose of 10 μM
Experimental: as §1, §2, §3, §4, §5, §6, §7

[3] = tested on: MCF7 (breast cancer) cells; test: MTT cytotoxicity assay in MCF7 breast cancer cells; type: cell-based; conditions: 65 hours incubation, read-out: IC50, viability of MCF7 cells from the MTT assay
Experimental: The cyctoxicity of compounds was determined in MCF 7 (breast cancer) cells.
MCF7 cells were grown in RPMI 1640 media with 10 nM estrogen and 1 mM insulin. Cells were tyripsinized and resuspended at a density of 2.2×10^4 cells per mL. 500 μL of this suspension was added to each well in a 24 well plate. The plates were incubated at 37° C. and 5% CO2 atmosphere overnight. The media was changed, and plates were dosed in triplicate with compound dissolved in DMSO. Cells were dosed not to exceed 0.5% DMSO in solution. Cells were dosed to a final concentration of 100, 50, 25, 12.5, and 6.25 μM of compound. 5-Flurouracil was used as a positive control and dosed in the same manner. Plates were incubated for 65 hours prior to the addition of MTT solution. 500 μL of a 193 μg/mL MTT and media solution was added to each well. Plates were incubated for 3 hours. The MTT solution was removed and 500 μL of DMSO was added to each well. Cells were imaged using GS 800 Bio Rad scanner and Quality One Software. IC50 curves were determined by plotting viability verses compound concentration. Kaleidagraph software was used to calculate the R value for each logarithmic curve fitting.

Prostate PC-3 = test: NCI in vitro cell line screen (SRB), single dose; type: cell-based, human; conditions: Prostate PC-3, single dose of 10 μM
Experimental: as §1, §2, §3, §4, §5, §6, §7

CNS SF-268 = test: NCI in vitro cell line screen (SRB), single dose; type: cell-based, human; conditions: CNS SF-268, single dose of 10 μM
Experimental: as §1, §2, §3, §4, §5, §6, §7

Renal CAKI-1 = test: NCI in vitro cell line screen (SRB), single dose; type: cell-based, human; conditions: Renal CAKI-1, single dose of 10 μM
Experimental: as §1, §2, §3, §4, §5, §6, §7

Renal A498 = test: NCI in vitro cell line screen (SRB), single dose; type: cell-based, human; conditions: Renal A498, single dose of 10 μM
Experimental: as §1, §2, §3, §4, §5, §6, §7

Melanoma UACC-62 = test: NCI in vitro cell line screen (SRB), single dose; type: cell-based, human; conditions: Melanoma UACC-62, single dose of 10 μM
Experimental: as §1, §2, §3, §4, §5, §6, §7

γ-H2AX = test: Western blot of drug-treated MCF7 cells detecting double-strand break marker γ-H2AX; type: cell-based; conditions: 4.5 μM, 16 hours, nuclear extract, two trials (FIG. 3)
Experimental: Vehicle controls were simultaneously prepared by treatment with DMSO.
Nuclear proteins from both the drug-treated and control samples were conducted using NE-PER Nuclear and Cytoplasmic Extraction Kit (Thermo Scientific) using the manufacturer's protocol. In detail, cells were harvested by trypsin-EDTA and centrifuged at 500×g for 5 minutes. The cells were washed to remove traces of trypsin by suspending in 1×PBS, followed by centrifugation at 500×g for 2-3 minutes. The supernatant was removed leaving the cell pellet as dry as possible. A 200 μL volume of ice-cold cytoplasmic extraction reagent I (CER-I), treated Halt™ Protease & Phosphatase Inhibitor Cocktail (Thermo Scientific), was added to the pellet. The cell pellet was suspended by vortexing vigorously for 15 seconds and then incubated on ice for 10 minutes. The mixture is then treated with 11 μL of ice-cold cytoplasmic extraction reagent II (CER-II) and mixed by vortexing on the highest setting for 5 seconds followed by incubation on ice of one minute to allow complete release of cytoplasmic contents. […]
Protein concentration in each sample and control was determined by Bradford Assay using Coomassie Plus™ (Bradford) Assay Kit (Thermo Scientific), applying the manufacturer's instruction. […] The absorbance is then measured at 595 nm using a Synergy 4 plate reader (Biotek). […]

CC(C)(C)C(OCc1cn([C@H]2C[C@H](O)[C@@H](CO)O2)c(=O)[nH]c1=O)c1ccccc1 (stereo partly shown) [JT-1-10, 5-[1-(phenyl)-2,2-(dimethyl)-1-propoxymethyl]-2′-deoxyuridine]
Growth Percent (CNS SNB-75): 65% | Growth Percent [1]: 89% | Growth Percent (Breast MSF7): 87% | Growth Percent (Renal TK-10): 84% | Growth Percent (Renal UO-31): 88% | Growth Percent [2]: 91% | Growth Percent (Leukemia RPMI-8226): 90% | IC50 [3]: 188 µM

CC(C)(C)C(OCc1c[nH]c(=O)[nH]c1=O)c1ccccc1[N+](=O)[O-] (stereo not shown) [KB-1-17, 5-[1-(2-nitrophenyl)-2,2-(dimethyl)propoxymethyl]uracil]
Growth Percent [1]: 68% | Growth Percent (Prostate PC-3): 93% | Growth Percent (CNS SF-268): 91% | IC50 [3]: 81 µM

CC(C)(C)C(OCc1cn([C@H]2C[C@H](O)[C@@H](CO)O2)c(=O)[nH]c1=O)c1ccccc1[N+](=O)[O-] (stereo partly shown) [VAL-1-15/27/42, 5-[1-(2-nitrophenyl)-2,2-(dimethyl)propoxymethyl]-2′-deoxyuridine]
Growth Percent (CNS SNB-75): 84% | Growth Percent [1]: 73% | Growth Percent (Prostate PC-3): 91% | Growth Percent (Renal CAKI-1): 88% | IC50 [3]: 42 µM

CC(C)(C)CC(OCc1cn([C@H]2C[C@H](O)[C@@H](CO)O2)c(=O)[nH]c1=O)c1ccccc1 (stereo partly shown) [VAL-1-16, 5-[1-(phenyl)-3,3-(dimethyl)-1-butoxymethyl]-2′-deoxyuridine]
Growth Percent (CNS SNB-75): 92% | Growth Percent (Renal A498): 92% | Growth Percent (Melanoma UACC-62): 90%

CC(C)(C)C(OCc1cn([C@H]2C[C@H](O)[C@@H](CO)O2)c(=O)[nH]c1=O)c1ccc(C#Cc2ccccc2)cc1[N+](=O)[O-] (stereo partly shown) [VAL-1-36/38, 5-[1-(4-{2-phenylacetylenyl}-2-nitrophenyl)-2,2-(dimethyl)-1-propoxymethyl]-2′-deoxyuridine]
double-strand break marker γ-H2AX (DNA damage response) (γ-H2AX): causes a DNA damage response | IC50 [3]: 9 ± 1 µM
